# Literature values, collected in patent US10603382B2, “Ophthalmic composition” (Johnson & Johnson Consumer Inc., priority 2014, dated 2020).
# Conditions: Merck Index, Twelfth Edition
row,Solubility (g/100 ml water at 25° C.) [g/100 ml],SMILES
1,0.63,O=C(O)/C=C/C(=O)O [Fumaric acid]
2,78,O=C(O)/C=C\C(=O)O [Maleic acid]

row,SMILES,Solubility (g/100 ml water at 25° C.) [g/100 ml]
1,O=C(O)CCCC(=O)O [Glutaric acid],63.9
